{
  "source": "patent US11766426B2",
  "about": "“Semi-solid topical composition containing pirfenidone and modified diallyl disulfide oxide (M-DDO) for eliminating or preventing acne” (Excalibur Pharmaceuticals, Inc., priority 2012, dated 2023)",
  "assay_type_in_all_cases": "cell-based",
  "key": {"[1]": {"system": "Klebsiella pneumoniae ATCC 10031", "test": "Microbial challenge, ARj.", "conditions": "contact time 30 seconds", "excerpt": "(§1) Tables 1, 2, 3 and 4 (shown hereinafter) present the information obtained after conducting microbiological tests, also known as antimicrobial challenge, of M-DDO against various bacteria, showing its powerful anti-bacterial capacity. Moreover, Table 5 (shown hereinafter) presents the results of M-DDO against Propionibacterium acnes.\n(§2) Various antimicrobial challenges have been studied in various institutions in order to evaluate the efficacy of M-DDO [Pirfenidone and M-DDO] against the most frequent microorganisms susceptible to develop resistance and against some microorganisms that may cause grater problem with regard to their eradication because of spore production.\n(§3) The initial challenges are conducted with collection microorganisms universally requested for evidencing the efficacy of a product. […] Moreover, results of studies conducted by a company authorized by the authorities to perform challenge studies show results that are similar to the results obtained in the test conducted at UNAM, UAEM and in our laboratory (Grupo Medifarma)(Tables 1, 2 and 3)."}, "[2]": {"system": "Candida albicans ATCC 10231", "test": "Microbial challenge, ARj.", "conditions": "contact time 30 seconds", "excerpt": "as §1, §2, §3"}, "[3]": {"system": "Staphylococcus aureus", "test": "Challenge with microorganisms collected from hospitalized patients, Universidad Autónoma del Estado de Morelos", "conditions": "contact time 30 seconds; isolate from hospitalized patients; UAEM", "experimental": "as §1\n(§4) A second type of challenges were performed at the Universidad Autónoma del Estado de Morelos with microorganisms collected from hospitalized patients and thus said microorganisms had already been in contact with antimicrobial agents and could show resistance (Table 4)."}, "[4]": {"system": "Escherichia coli", "test": "Challenge with microorganisms collected from hospitalized patients, Universidad Autónoma del Estado de Morelos", "conditions": "contact time 30 seconds; isolate from hospitalized patients; UAEM", "experimental": "as §1, §4"}, "[5]": {"system": "Enterobacter cloacae", "test": "Challenge with microorganisms collected from hospitalized patients, Universidad Autónoma del Estado de Morelos", "conditions": "contact time 30 seconds; isolate from hospitalized patients; UAEM", "experimental": "as §1, §4"}, "[6]": {"system": "Enterobacter faecalis", "test": "Challenge with microorganisms collected from hospitalized patients, Universidad Autónoma del Estado de Morelos", "conditions": "contact time 30 seconds; isolate from hospitalized patients; UAEM", "experimental": "as §1, §4"}, "[7]": {"system": "Serratia marcenses", "test": "Challenge with microorganisms collected from hospitalized patients, Universidad Autónoma del Estado de Morelos", "conditions": "contact time 30 seconds; isolate from hospitalized patients; UAEM", "experimental": "as §1, §4"}, "[8]": {"system": "Salmonella enteritidis", "test": "Challenge with microorganisms collected from hospitalized patients, Universidad Autónoma del Estado de Morelos", "conditions": "contact time 30 seconds; isolate from hospitalized patients; UAEM", "experimental": "as §1, §4"}, "[9]": {"system": "Salmonella typhi", "test": "Challenge with microorganisms collected from hospitalized patients, Universidad Autónoma del Estado de Morelos", "conditions": "contact time 30 seconds; isolate from hospitalized patients; UAEM", "experimental": "as §1, §4"}, "[10]": {"system": "Klebsiella pneumoniae ATCC 10031", "test": "Microbial challenge, Grupo Medifarma", "conditions": "contact time 30 seconds", "excerpt": "as §1, §2, §3"}, "[11]": {"system": "Staphylococcus epidermidis ATCC 12228", "test": "Microbial challenge, Grupo Medifarma", "conditions": "contact time 30 seconds", "excerpt": "as §1, §2, §3"}, "[12]": {"system": "Candida albicans ATCC 10231", "test": "Microbial challenge, Grupo Medifarma", "conditions": "contact time 30 seconds", "excerpt": "as §1, §2, §3"}, "[13]": {"system": "Escherichia coli ATCC 11229", "test": "Microbial challenge, Grupo Medifarma", "conditions": "contact time 30 seconds", "excerpt": "as §1, §2, §3"}, "[14]": {"system": "Escherichia coli ATCC 10536", "test": "Microbial challenge, Grupo Medifarma", "conditions": "contact time 30 seconds", "excerpt": "as §1, §2, §3"}, "[15]": {"system": "Staphylococcus aureus ATCC 6538", "test": "Microbial challenge, Grupo Medifarma", "conditions": "contact time 30 seconds", "excerpt": "as §1, §2, §3"}, "[16]": {"system": "Proteus vulgaris ATCC 6380", "test": "Microbial challenge, Grupo Medifarma", "conditions": "contact time 30 seconds", "excerpt": "as §1, §2, §3"}, "[17]": {"system": "Pseudomonas aeruginosa ATCC 9027", "test": "Microbial challenge, Grupo Medifarma", "conditions": "contact time 30 seconds", "excerpt": "as §1, §2, §3"}, "[18]": {"system": "microorganisms isolated from hospitalized patients", "test": "Challenges with microorganisms isolated from hospitalized patients, summary", "conditions": "30 second contact", "experimental": "as §4"}, "[19]": {"system": "collection microorganisms", "test": "Microbial challenge studies at the Universidad Nacional Autónoma de México, summary", "experimental": "as §2, §3"}, "[20]": {"system": "Propionibacterium acnes", "test": "Antimicrobial action of Pirfenidone and M-DDO gel", "excerpt": "as §1"}, "[21]": {"system": "Salmonella typhi CA-C001", "test": "Microbial challenge, UNAM", "conditions": "contact time 30 seconds", "excerpt": "as §1, §2, §3"}},
  "data": [
    {"substance": "[1,2-diallyl-1-(5-methyl-tetrahydro-2H-pyran-2-yloxy)disulfonium]+6-[(benzyl, methyl, octylammonium) (hydroxymethylamin)(methylamin)]-tetrahydro-2H-pyran-3-oxy] chloride [M-DDO]", "values": [
      {"measurement": "elimination of the microbial charge", "setting": "[1]", "result": 100, "unit": "%"},
      {"measurement": "elimination of the microbial charge", "setting": "[2]", "result": 100, "unit": "%"},
      {"measurement": "reduction of the microbial charge", "setting": "[3]", "result": 99.999, "unit": "%"},
      {"measurement": "reduction of the microbial charge", "setting": "[4]", "result": 99.961, "unit": "%"},
      {"measurement": "reduction of the microbial charge", "setting": "[5]", "result": 100, "unit": "%"},
      {"measurement": "reduction of the microbial charge", "setting": "[6]", "result": 99.972, "unit": "%"},
      {"measurement": "reduction of the microbial charge", "setting": "[7]", "result": 100, "unit": "%"},
      {"measurement": "reduction of the microbial charge", "setting": "[8]", "result": 100, "unit": "%"},
      {"measurement": "reduction of the microbial charge", "setting": "[9]", "result": 99.170, "unit": "%"},
      {"measurement": "elimination of microorganisms", "setting": "[10]", "result": 100, "unit": "%"},
      {"measurement": "elimination of microorganisms", "setting": "[11]", "result": 100, "unit": "%"},
      {"measurement": "elimination of microorganisms", "setting": "[12]", "result": 100, "unit": "%"},
      {"measurement": "elimination of microorganisms", "setting": "[13]", "result": 100, "unit": "%"},
      {"measurement": "elimination of microorganisms", "setting": "[14]", "result": 100, "unit": "%"},
      {"measurement": "elimination of microorganisms", "setting": "[15]", "result": 100, "unit": "%"},
      {"measurement": "elimination of microorganisms", "setting": "[16]", "result": 100, "unit": "%"},
      {"measurement": "elimination of microorganisms", "setting": "[17]", "result": 100, "unit": "%"},
      {"measurement": "reduction of the microbial charge", "setting": "[18]", "result": "at least 99.17%"},
      {"measurement": "elimination of the microbial charge", "setting": "[19]", "result": 99.999, "unit": "%"},
      {"measurement": "Percentage of reduction of bacteria viability (%)", "setting": "[20]; exposition time 30 sec", "result": 99.999, "unit": "%"},
      {"measurement": "Percentage of reduction of bacteria viability (%)", "setting": "[20]; exposition time 60 sec", "result": 99.999, "unit": "%"},
      {"measurement": "Percentage of reduction of bacteria viability (%)", "setting": "[20]; exposition time 15 min", "result": 100, "unit": "%"},
      {"measurement": "elimination of the microbial charge", "setting": "[21]", "result": 99.999, "unit": "%"}
    ]}
  ]
}
